# Laboratory results taken from patent US20260022142A1, “MACROCYCLIC IMMUNOMODULATORS” (Bristol-Myers Squibb Company, priority 2022, published 2026).
# Numbered stars: 1 amine (or outer) side, 2 acyl side, 3 side chain; on linkers, the order of the positions; unused ones are H or OH. Bridge positions count the residues as written; N and C are the ends. Square brackets hold non-standard residues; d marks the D form. Peptide text beside a SMILES is read from it. * marks the point of attachment. ξ: configuration not given here. Phe(3,4-Cl2) = N[C@@H](Cc1ccc(Cl)c(Cl)c1)C(=O)O; Phe(3-CF3) = N[C@@H](Cc1cccc(C(F)(F)F)c1)C(=O)O; Ala(morpholin-4-yl) = N[C@@H](CN1CCOCC1)C(=O)O; Phe(4-COOH) = N[C@@H](Cc1ccc(C(=O)O)cc1)C(=O)O; Bip = N[C@@H](Cc1ccc(-c2ccccc2)cc1)C(=O)O; Phe(3-Me) = Cc1cccc(C[C@H](N)C(=O)O)c1; βAsp = O=C(O)[C@H](CC(=O)[*:2])N[*:1]; NH(CH2)12COOH = O=C(O)CCCCCCCCCCCCN*; Val(3-OH) = CC(C)(O)[C@H](N)C(=O)O; Aha = [N-]=[N+]=NCC[C@H](N)C(=O)O; 4Pal = N[C@@H](Cc1ccncc1)C(=O)O; Cha = N[C@@H](CC1CCCCC1)C(=O)O; Cit = NC(=O)NCCC[C@H](N)C(=O)O; Thr(3ξ) = CC(O)[C@H](N)C(=O)O; dDab = NCC[C@@H](N)C(=O)O; Carboxymethyl = O=C(O)C*; Orn = NCCC[C@H](N)C(=O)O; Aun = NCCCCCCCCCCC(=O)O; Dab = NCC[C@H](N)C(=O)O; Dap = NC[C@H](N)C(=O)O; AEEA = NCCOCCOCC(=O)O; Piv = CC(C)(C)C(=O)*
# Molecular target: T1, PD-1/PD-L1 interaction (PE-labeled human PD-L1-Ig binding to Jurkat cell line over-expressing human PD-1) (Homo sapiens, UniProt Q15116)
# T1 construct: expressed in transfected cells; host or cells: Jurkat
# Experiment: Jurkat-PD-1 Cell Binding High-Content Screening Assay (CBA)
# Type: cell-based
# Conditions: Jurkat cell line over-expressing human PD-1; PE-labeled PD-L1-Ig 20 nM final; read-out: Jurkat hPD1-PDL1 IC50
# Procedure, shortened: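 Jurkat cells over-expressing human PD-1 (8×10^3 per well, DMEM/10% FCS) preincubated with compound 2 h at 37° C, then PE-labeled human PD-L1-Ig (20 nM final) added for 1 h. Cells fixed with paraformaldehyde, Hoechst-stained, and bound fluorescence quantified by high-content imaging.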
# T1 sequence (Q15116 25-288): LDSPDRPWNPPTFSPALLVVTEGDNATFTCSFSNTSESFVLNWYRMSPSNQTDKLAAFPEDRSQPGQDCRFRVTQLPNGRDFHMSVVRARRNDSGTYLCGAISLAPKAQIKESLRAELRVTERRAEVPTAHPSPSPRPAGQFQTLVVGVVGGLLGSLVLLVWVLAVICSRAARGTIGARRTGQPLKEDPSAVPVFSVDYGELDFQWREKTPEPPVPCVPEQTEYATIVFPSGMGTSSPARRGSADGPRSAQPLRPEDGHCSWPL
row,IC50,SMILES
1,216 nM,CC(C)C[C@H]1NC(=O)[C@H](CCCN)NC(=O)[C@H](Cc2ccc(C(=O)O)cc2)NC(=O)[C@H](Cc2ccc(-c3ccccc3)cc2)NC(=O)[C@H](Cc2ccc(C(=O)O)cc2)NC(=O)[C@H](Cc2cccc(C(F)(F)F)c2)NC(=O)[C@H](CC(=O)O)NC(=O)[C@H](Cc2ccc(OCC(=O)O)cc2)NC(=O)[C@H](CN2CCOCC2)NC(=O)CSC[C@@H](C(=O)N[C@H](CCN)C(=O)NCCOCCOCC(=O)NCCOCCOCC(=O)NCCCCCCCCCCCCC(=O)O)NC(=O)[C@H](CO)NC(=O)[C@H](C(C)(C)O)NC(=O)[C@H](CC2CCCCC2)NC(=O)[C@H](CCN)NC1=O [Compound 3828] ({CH2CO}-[Ala(morpholin-4-yl)]Y(Carboxymethyl)D[Phe(3-CF3)][Phe(4-COOH)][Bip][Phe(4-COOH)][Orn][dL][Dab][Cha][Val(3-OH)]SC[dDab][AEEA][AEEA]-{NH(CH2)12COOH}; thioether N-14)
2,243 nM,COc1ccc(C[C@@H]2NC(=O)[C@H](Cc3cccc(C)c3)NC(=O)[C@H](CC(=O)O)NC(=O)[C@H](Cc3ccc(OCC(=O)O)cc3)NC(=O)[C@H](Cc3ccncc3)NC(=O)CSC[C@@H](C(=O)N[C@@H](CCN)C(=O)N[C@@H](CCN=[N+]=[N-])C(=O)NCCCCCCCCCCC(=O)O)NC(=O)[C@H](CO)NC(=O)[C@H](C(C)(C)O)NC(=O)[C@H](CC3CCCCC3)NC(=O)[C@H](CCN)NC(=O)[C@@H](CC(C)C)NC(=O)[C@H](CCCN)NC(=O)[C@H](Cc3ccc(OCC(=O)O)cc3)NC(=O)[C@H](Cc3ccc(-c4ccccc4)cc3)NC2=O)cc1 [Compound 1280] ({CH2CO}-[4Pal]Y(Carboxymethyl)D[Phe(3-Me)]Y(Me)[Bip]Y(Carboxymethyl)[Orn][dL][Dab][Cha][Val(3-OH)]SC[Dab][Aha][Aun]-OH; thioether N-14)
3,13.6 nM,Cc1cccc(C[C@@H]2NC(=O)[C@H](CC(=O)O)NC(=O)[C@H](Cc3ccc(OCC(=O)O)cc3)NC(=O)[C@H](CCN)NC(=O)CSC[C@@H](C(=O)N[C@@H](CCCN)C(=O)N[C@@H](CN)C(=O)NCCCCCCCCCCC(=O)O)NC(=O)[C@H](CCCN)NC(=O)[C@H](C(C)C)NC(=O)[C@H](CC3CCCCC3)NC(=O)[C@H](CCN)NC(=O)[C@@H](CC(C)C)NC(=O)[C@H](CCCN)NC(=O)[C@H](Cc3ccc(O)cc3)NC(=O)[C@H](Cc3ccc(-c4ccccc4)cc3)NC(=O)[C@H](CCCCNC(=O)C(C)(C)C)NC2=O)c1 [Compound 3612] ({CH2CO}-[Dab]Y(Carboxymethyl)D[Phe(3-Me)]K(Piv)[Bip]Y[Orn][dL][Dab][Cha]V[Orn]C[Orn][Dap][Aun]-OH; thioether N-14)
4,30.2 nM,CC(C)C[C@H]1NC(=O)[C@H](CCCN)NC(=O)[C@H](C(C)C)NC(=O)[C@H](Cc2ccc(-c3ccccc3)cc2)NC(=O)[C@H](C(C)C)NC(=O)[C@H](Cc2c[nH]c3ccccc23)NC(=O)[C@H](CC(=O)O)NC(=O)[C@H](Cc2ccc(OCC(=O)O)cc2)NC(=O)[C@H](CN)NC(=O)CSC[C@@H](C(=O)NCCOCCOCC(=O)N[C@H](CCC(=O)O)C(=O)NCCCCCCCCCCC(=O)O)NC(=O)[C@H]([C@@H](C)O)NC(=O)[C@H](C(C)C)NC(=O)[C@H](CC2CCCCC2)NC(=O)[C@H](Cc2cnc[nH]2)NC1=O [Compound 1133] ({CH2CO}-[Dap]Y(Carboxymethyl)DWV[Bip]V[Orn][dL]H[Cha]VTC[AEEA][dE][Aun]-OH; thioether N-14)
5,12.8 nM,Cc1cccc(C[C@@H]2NC(=O)[C@H](CC(=O)O)NC(=O)[C@H](Cc3ccc(OCC(=O)O)cc3)NC(=O)[C@H](Cc3ccncc3)NC(=O)CSC[C@@H](C(=O)N[C@@H](CCCN)C(=O)NCCCCCCCCCCC(=O)O)NC(=O)[C@H](CCCN)NC(=O)[C@H](C(C)C)NC(=O)[C@H](CC3CCCCC3)NC(=O)[C@H](CCN)NC(=O)[C@@H](CC(C)C)NC(=O)[C@H](CCCN)NC(=O)[C@H](C(C)C)NC(=O)[C@H](Cc3ccc(-c4ccccc4)cc3)NC(=O)[C@H](C(C)C)NC2=O)c1 [Compound 3348] ({CH2CO}-[4Pal]Y(Carboxymethyl)D[Phe(3-Me)]V[Bip]V[Orn][dL][Dab][Cha]V[Orn]C[Orn][Aun]-OH; thioether N-14)
6,34.3 nM,Cc1cccc(C[C@@H]2NC(=O)[C@H](CC(=O)O)NC(=O)[C@H](Cc3ccc(OCC(=O)O)cc3)NC(=O)[C@H](CN)NC(=O)CSC[C@@H](C(=O)N[C@@H](CCN)C(=O)NCCCCCCCCCCC(=O)O)NC(=O)[C@@H]([C@H](C)O)NC(=O)[C@H](C(C)C)NC(=O)[C@H](CC3CCCCC3)NC(=O)[C@H](CCN)NC(=O)[C@@H](CC(C)C)NC(=O)[C@H](CCCN)NC(=O)[C@H](Cc3ccc(O)cc3)NC(=O)[C@H](Cc3ccc(-c4ccccc4)cc3)NC(=O)[C@H](C(C)C)NC2=O)c1 [Compound 2722] ({CH2CO}-[Dap]Y(Carboxymethyl)D[Phe(3-Me)]V[Bip]Y[Orn][dL][Dab][Cha]V[dT]C[Dab][Aun]-OH; thioether N-14)
7,64.6 nM,"CC(C)C[C@H]1NC(=O)[C@H](CCCN)NC(=O)[C@H](Cc2ccc(O)cc2)NC(=O)[C@H](Cc2ccc(-c3ccccc3)cc2)NC(=O)[C@H](C(C)C)NC(=O)[C@H](Cc2ccc(Cl)c(Cl)c2)NC(=O)[C@H](CC(=O)O)NC(=O)[C@H](Cc2ccc(OCC(=O)O)cc2)NC(=O)[C@H](CN)NC(=O)CSC[C@@H](C(=O)N[C@@H](CCN)C(=O)NCCOCCOCC(=O)NCCCCCCCCCCC(=O)O)NC(=O)[C@H](CCCN)NC(=O)[C@H](C(C)C)NC(=O)[C@H](CC2CCCCC2)NC(=O)[C@H](CCN)NC1=O [Compound 1310] ({CH2CO}-[Dap]Y(Carboxymethyl)D[Phe(3,4-Cl2)]V[Bip]Y[Orn][dL][Dab][Cha]V[Orn]C[Dab][AEEA][Aun]-OH; thioether N-14)"
8,75.8 nM,CC(C)C[C@H]1NC(=O)[C@H](CCCN)NC(=O)[C@H](Cc2ccc(C(=O)O)cc2)NC(=O)[C@H](Cc2ccc(-c3ccccc3)cc2)NC(=O)[C@H](Cc2ccc(C(=O)O)cc2)NC(=O)[C@H](Cc2cccc(C(F)(F)F)c2)NC(=O)[C@H](CC(=O)O)NC(=O)[C@H](Cc2ccc(OCC(=O)O)cc2)NC(=O)[C@H](CCN)NC(=O)CSC[C@@H](C(=O)N[C@@H](CCN)C(=O)NCCOCCOCC(=O)N[C@@H](CC(=O)NCCOCCOCC(=O)NCCCCCCCCCCCCC(=O)O)C(=O)O)NC(=O)[C@H](CO)NC(=O)[C@H](C(C)(C)O)NC(=O)[C@H](CC2CCCCC2)NC(=O)[C@H](CCN)NC1=O [Compound 2943] ({CH2CO}-[Dab]Y(Carboxymethyl)D[Phe(3-CF3)][Phe(4-COOH)][Bip][Phe(4-COOH)][Orn][dL][Dab][Cha][Val(3-OH)]SC[Dab][AEEA][βAsp][AEEA]-{NH(CH2)12COOH}; thioether N-14)
9,15.2 nM,Cc1cccc(C[C@@H]2NC(=O)[C@H](CC(=O)O)NC(=O)[C@H](Cc3ccc(OCC(=O)O)cc3)NC(=O)[C@H](C(C)O)NC(=O)CSC[C@@H](C(=O)N[C@@H](CCN)C(=O)NCCCCCCCCCCCCC(=O)O)NC(=O)[C@H](CO)NC(=O)[C@H](C(C)(C)O)NC(=O)[C@H](CC3CCCCC3)NC(=O)[C@H](CCN)NC(=O)[C@@H](CC(C)C)NC(=O)[C@H](CCCN)NC(=O)[C@H](Cc3ccc(OCC(=O)O)cc3)NC(=O)[C@H](Cc3ccc(-c4ccccc4)cc3)NC(=O)[C@H](Cc3ccc(OCC(=O)O)cc3)NC2=O)c1 (stereo partly drawn) [Compound 3844] ({CH2CO}-[Thr(3ξ)]Y(Carboxymethyl)D[Phe(3-Me)]Y(Carboxymethyl)[Bip]Y(Carboxymethyl)[Orn][dL][Dab][Cha][Val(3-OH)]SC[Dab]-{NH(CH2)12COOH}; thioether N-14)
10,5.2 nM,CC[C@H](C)[C@@H]1NC(=O)[C@H](Cc2ccc(-c3ccccc3)cc2)NC(=O)[C@H](C(C)C)NC(=O)[C@H](Cc2cccc(C)c2)NC(=O)[C@H](CC(=O)O)NC(=O)[C@H](Cc2ccc(OCC(=O)O)cc2)NC(=O)[C@H](CN)NC(=O)CSC[C@@H](C(=O)N[C@@H](CCCCN)C(=O)NCCOCCOCC(=O)NCCCCCCCCCCC(=O)O)NC(=O)[C@H](CCCNC(=N)N)NC(=O)[C@H](C(C)C)NC(=O)[C@H](CC2CCCCC2)NC(=O)[C@H](CCN)NC(=O)[C@@H](CC(C)C)NC(=O)[C@H](CCCN)NC1=O [Compound 2654] ({CH2CO}-[Dap]Y(Carboxymethyl)D[Phe(3-Me)]V[Bip]I[Orn][dL][Dab][Cha]VRCK[AEEA][Aun]-OH; thioether N-14)
11,165 nM,Cc1cccc(C[C@@H]2NC(=O)[C@H](CC(=O)O)NC(=O)[C@H](Cc3ccc(OCC(=O)O)cc3)NC(=O)[C@H](Cc3ccncc3)NC(=O)CSC[C@@H](C(=O)N[C@@H](CCN)C(=O)NCCCCCCCCCCC(=O)O)NC(=O)[C@H](CO)NC(=O)[C@H](C(C)(C)O)NC(=O)[C@H](CC3CCCCC3)NC(=O)[C@H](CCN)NC(=O)[C@@H](CC(C)C)NC(=O)[C@H](CCCN)NC(=O)[C@H](Cc3ccc(C(=O)O)cc3)NC(=O)[C@H](Cc3ccc(-c4ccccc4)cc3)NC(=O)[C@H](Cc3ccc(C(=O)O)cc3)NC2=O)c1 [Compound 3716] ({CH2CO}-[4Pal]Y(Carboxymethyl)D[Phe(3-Me)][Phe(4-COOH)][Bip][Phe(4-COOH)][Orn][dL][Dab][Cha][Val(3-OH)]SC[Dab][Aun]-OH; thioether N-14)
12,20.2 nM,CC(C)C[C@H]1NC(=O)[C@H](CCCN)NC(=O)[C@H](CCCNC(N)=O)NC(=O)[C@H](Cc2ccc(-c3ccccc3)cc2)NC(=O)[C@H](Cc2ccc(O)cc2)NC(=O)[C@H](Cc2c[nH]c3ccccc23)NC(=O)[C@H](CC(=O)O)NC(=O)[C@H](Cc2ccc(OCC(=O)O)cc2)NC(=O)[C@H](CCCNC(=N)N)NC(=O)CSC[C@@H](C(=O)N[C@@H](CCN)C(=O)NCCCCCCCCCCC(=O)O)NC(=O)[C@H]([C@@H](C)O)NC(=O)[C@H](C(C)C)NC(=O)[C@H](CC2CCCCC2)NC(=O)[C@H](CCN)NC1=O [Compound 2834] ({CH2CO}-RY(Carboxymethyl)DWY[Bip][Cit][Orn][dL][Dab][Cha]VTC[Dab][Aun]-OH; thioether N-14)
